Legend:
5-HT2B receptor = 5-HT2B receptor (Homo sapiens (Human), UniProt P41595); assay: FLIPR Ca2+ flux agonist assay at 5-HT2B; format: cell-based
Method: (§1) The functional activity of Compound 1 at several serotonin (5-HT) receptor subtypes (5-HT2A, 5-HT2B, and 5-HT1A) was determined in Ca^2+ flux assays, with the results summarized in Table 3.
(§2) Functional Assays at 5-HT2A, 5-HT2B, and 5-HT1A Receptors. Agonist activity at 5-HT2A, 5-HT2B, and 5-HT1A receptors was determined using a FLIPR Ca^2+ flux assay at WuXi AppTec (Hong Kong) Limited according to their standard protocols. Briefly, stably transfected cells expressing the receptor of interest (HEK293 for 5-HT2A and 5-HT2B; CHO cells for 5-HT1A) were grown and plated in a 384 well plate and incubated at 37° C. and 5% CO2 overnight. A solution of 250 mM probenecid in 1 mL FLIPR assay buffer was prepared fresh. This was combined with a fluorescent dye (Fluo-4 Direct™) to make a final assay concentration of 2.5 mM. Compounds were diluted 1:3.16 for 10 points and 750 nL was added to a 384 well compound plate using ECHO along with 30 μL assay buffer. The fluorescent dye was then added to the assay plate along with assay buffer to a final volume of 40 μL. The cell plate was incubated for 50 min at 37° C. and 5% CO2 and placed into the FLIPR Tetra along with the compound plate. 10 μL of references and compounds were then transferred from the compound plate into the cell plate and the fluorescent signal was read.

[1] = Metabolic stability in cynomolgus monkey liver microsomes (CLM); conditions: male, pooled liver microsomes, pH 7.4
C57BL/6 mice = assay: Head twitch response (HTR) in mice; format: in vivo; conditions: for Average HTR (SEM): counted for 20 min; for ED50: Mus musculus, sc, Gaussian dose-response fit, read-out: HTR ED50 (95% CI); for maximal HTR effect: s.c., maximal effect over doses
Method: Animals. Adult male C57BL/6 mice, aged 8 weeks (body weight 20-25 g) were used in these experiments. Animals were housed under controlled temperatures and 12-hour light/dark cycles (lights on between 07:00-19:00 h), with ad libitum food and water. All efforts were made to minimize suffering.
Drugs and Drug Administration. Compound 1 was synthesized as described above. […] All compounds were used as the HCl salts, dissolved in a vehicle consisting of normal saline, and administered subcutaneously (s.c.) in a volume of 10 mL/kg. […] Group size was N=6 animals/group.
Procedure. Mice were administered one dose of a test drug (or vehicle) s.c. and immediately placed into a small open field for behavioral observation.
Statistical Analysis. The data points shown in Table 4 are the mean±standard error of the mean (SEM). Dose-response curves were fit and ED50s calculated using the Gaussian 2020 function in GraphPad Prism 9.

5-HT2A receptor [2] = biological target: T1, 5-HT2A receptor (Homo sapiens (Human), UniProt P28223); assay: FLIPR Ca2+ flux agonist assay at 5-HT2A; format: cell-based
Method: as §1, §2

5-HT2A receptor [3] = biological target: T1, 5-HT2A receptor; assay: 5-HT2A receptor radioligand binding ([3H]ketanserin); conditions: for Ki: 1 nM [3H]ketanserin, HEK293 stable cell line
Method: Methods. Affinity of the test compounds for the 5-HT2A receptor was determined in radioligand binding experiments with [^3H]ketanserin by WuXi AppTec (Hong Kong) Limited, using methods adapted from the literature and under conditions described in Table 2.

5-HT1A receptor = 5-HT1A receptor (Homo sapiens (Human), UniProt P08908); assay: FLIPR Ca2+ flux agonist assay at 5-HT1A; format: cell-based
Method: as §1, §2

[4] = Ca2+ flux, HEK293 cells, max dose

Sequence of 5-HT2B receptor (P41595 whole entry): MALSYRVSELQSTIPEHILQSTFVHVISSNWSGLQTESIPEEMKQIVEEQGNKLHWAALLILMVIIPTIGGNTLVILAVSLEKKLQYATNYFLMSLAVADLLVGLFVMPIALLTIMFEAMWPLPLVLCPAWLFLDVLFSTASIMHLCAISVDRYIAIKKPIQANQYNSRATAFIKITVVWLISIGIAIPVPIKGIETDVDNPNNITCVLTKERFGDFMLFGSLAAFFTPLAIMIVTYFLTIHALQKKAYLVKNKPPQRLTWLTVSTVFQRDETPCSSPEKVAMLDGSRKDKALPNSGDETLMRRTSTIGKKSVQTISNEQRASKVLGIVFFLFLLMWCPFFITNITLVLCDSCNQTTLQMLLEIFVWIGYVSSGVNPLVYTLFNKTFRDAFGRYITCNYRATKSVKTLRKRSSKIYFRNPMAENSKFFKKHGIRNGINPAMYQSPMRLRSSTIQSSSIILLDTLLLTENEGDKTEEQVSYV

| SMILES | EC50 (5-HT2B receptor) | 5-HT2B % Act @ Max Dose (5-HT2B receptor; [4]) | half-life at 1 μM [1] | microsomal CLint at 1 μM [1] | Average HTR (SEM) (C57BL/6 mice; 0.1 mg/kg s.c.) | Average HTR (SEM) (C57BL/6 mice; 0.316 mg/kg s.c.) | Average HTR (SEM) (C57BL/6 mice; 1 mg/kg s.c.) | Average HTR (SEM) (C57BL/6 mice; 3.16 mg/kg s.c.) | Average HTR (SEM) (C57BL/6 mice; 10 mg/kg s.c.) | ED50 (C57BL/6 mice) | maximal HTR effect (C57BL/6 mice) | EC50 (5-HT2A receptor [2]) | selectivity among 5-HT receptors (in words) (5-HT2A receptor [2]; 5-HT2A over 5-HT2B and 5-HT1A, Ca2+ flux) | agonist activity at the 5-HT2A receptor (in words) (5-HT2A receptor [2]; Ca2+ flux) | 5-HT2A % Act @ Max Dose (5-HT2A receptor [2]; [4]) | Ki (5-HT2A receptor [3]) | binding affinity at the 5-HT2A receptor (in words) (5-HT2A receptor [3]; compared to closely related compounds) | EC50 (5-HT1A receptor) | 5-HT1A % Act @ Max Dose (5-HT1A receptor; Ca2+ flux, CHO cells, max dose) | Average HTR (SEM) (C57BL/6 mice; 31.6 mg/kg s.c.) |
| --- | --- | --- | --- | --- | --- | --- | --- | --- | --- | --- | --- | --- | --- | --- | --- | --- | --- | --- | --- | --- |
| C=CCc1cc(OC)c(CCN)cc1OC [Compound 1, 2-(4-allyl-2,5-dimethoxyphenyl)ethan-1-amine] | 77.7 nM | 74.87% | 0.705 h | 32.8 µL/min/mg | 8.8 (0.79) | 13.3 (0.49) | 23.0 (1.21) | 28.8 (1.58) | 24.3 (2.04) | 0.28 mg/kg | 28.8 head twitches/20 min | 2.15 nM | selective for the 5-HT2A receptor over the 5-HT2B and 5-HT1A receptors | potent and highly efficacious agonist | 110.99% | 90.4 nM | reduced binding affinity | > 100000 nM | 13.25% | – |
| CCc1cc(OC)c(CCN)cc1OC [Compound 2C-E] | – | – | 1.31 h | 17.6 µL/min/mg | – | – | – | – | – | – | – | – | – | – | – | 16.7 nM | – | – | – | – |
| COc1cc(CCN)c(OC)cc1Br [Compound 2C-B] | – | – | 1.25 h | 18.4 µL/min/mg | – | – | – | – | – | – | – | – | – | – | – | – | – | – | – | – |
| COc1cc(C(F)(F)F)c(OC)cc1CCN [Compound 2C-TFM, 2,5-dimethoxy-4-(trifluoromethyl)phenethylamine] | – | – | – | – | – | 6.5 (0.89) | 19.2 (2.47) | 19.2 (2.37) | 17.2 (1.62) | 0.43 mg/kg | 19.2 head twitches/20 min | – | – | – | – | 15.8 nM | – | – | – | 9.3 (1.12) |
| COc1cc(CC(C)N)c(OC)cc1I (stereo not drawn) [DOI, 4-iodo-2,5-dimethoxyamphetamine] | – | – | – | – | 5.5 (0.85) | 13.0 (2.07) | 29.3 (2.29) | 35.6 (3.37) | 22.7 (1.52) | 0.43 mg/kg | 35.6 head twitches/20 min | – | – | – | – | – | – | – | – | – |
